BindingDB's records for doi:10.1021/jm980217s (Abbott Laboratories, 1998)

Experiment: Binding affinity for endothelin B receptor by measuring its ability to displace [125I]-ET-3 from porcine cerebellar tissue
With CCCCN(CCCC)C(=O)CN1C[C@H](c2ccc3c(c2)OCO3)[C@@H](C(=O)O)[C@@H]1CCCC1OCCO1 [(2S,3R,4S)-4-Benzo[1,3]dioxol-5-yl-1-dibutylcarbamoylmethyl-2-(3-[1,3]dioxolan-2-yl-propyl)-pyrrolidine-3-carboxylic acid] the IC50 was 50 µM.
In the case of CCCCN(CCCC)C(=O)CN1C[C@H](c2ccc3c(c2)OCO3)[C@@H](C(=O)O)[C@@H]1CCn1ccccc1=O [(2S,3R,4S)-4-Benzo[1,3]dioxol-5-yl-1-dibutylcarbamoylmethyl-2-[2-(2-oxo-2H-pyridin-1-yl)-ethyl]-pyrrolidine-3-carboxylic acid], the IC50 is reported as 41 µM.
In the case of CCCCN(CCCC)C(=O)CN1C[C@H](c2ccc3c(c2)OCO3)[C@@H](C(=O)O)[C@@H]1CCC1CCCO1 (stereo partly drawn) [(2S,3R,4S)-4-Benzo[1,3]dioxol-5-yl-1-dibutylcarbamoylmethyl-2-[2-(tetrahydro-furan-2-yl)-ethyl]-pyrrolidine-3-carboxylic acid], the IC50 is reported as > 100 µM.
For CCCCN(CCCC)C(=O)CN1C[C@H](c2ccc3c(c2)OCO3)[C@@H](C(=O)O)[C@@H]1CCN1CCCC1=O [(2S,3R,4S)-4-Benzo[1,3]dioxol-5-yl-1-dibutylcarbamoylmethyl-2-[2-(2-oxo-pyrrolidin-1-yl)-ethyl]-pyrrolidine-3-carboxylic acid], the IC50 was 65.4 µM.
CCCCN(CCCC)C(=O)CN1C[C@H](c2ccc3c(c2)OCO3)[C@@H](C(=O)O)[C@@H]1CCN1CCCCC1=O [(2S,3R,4S)-4-Benzo[1,3]dioxol-5-yl-1-dibutylcarbamoylmethyl-2-[2-(2-oxo-piperidin-1-yl)-ethyl]-pyrrolidine-3-carboxylic acid] showed an IC50 of 85 µM.
Molecule CCCCN(CCCC)C(=O)CN1C[C@H](c2ccc3c(c2)OCO3)[C@@H](C(=O)O)[C@@H]1CCc1ccco1 [(2S,3R,4S)-4-Benzo[1,3]dioxol-5-yl-1-dibutylcarbamoylmethyl-2-(2-furan-2-yl-ethyl)-pyrrolidine-3-carboxylic acid] has an IC50 of 47 µM.
Work on CCCCN(CCCC)C(=O)CN1C[C@H](c2ccc3c(c2)OCO3)[C@@H](C(=O)O)[C@@H]1C(C)(C)CCCC [(2R,3R,4S)-4-Benzo[1,3]dioxol-5-yl-1-dibutylcarbamoylmethyl-2-(1,1-dimethyl-pentyl)-pyrrolidine-3-carboxylic acid] yielded an IC50 of 36 µM.
In the case of CCCCN(CCCC)C(=O)CN1C[C@H](c2ccc3c(c2)OCO3)[C@@H](C(=O)O)[C@@H]1CCc1ccccn1 [(2S,3R,4S)-4-Benzo[1,3]dioxol-5-yl-1-dibutylcarbamoylmethyl-2-(2-pyridin-2-yl-ethyl)-pyrrolidine-3-carboxylic acid], the IC50 is reported as 14.1 µM.
CCCCN(CCCC)C(=O)CN1C[C@H](c2ccc3c(c2)OCO3)[C@@H](C(=O)O)[C@@H]1CCC=C(C)C [(2S,3R,4S)-4-Benzo[1,3]dioxol-5-yl-1-dibutylcarbamoylmethyl-2-(4-methyl-pent-3-enyl)-pyrrolidine-3-carboxylic acid] gave an IC50 of 33.2 µM.
For CCCCN(CCCC)C(=O)CN1C[C@H](c2ccc3c(c2)OCO3)[C@@H](C(=O)O)[C@@H]1CCC1CCCCO1 (stereo partly drawn) [(2S,3R,4S)-4-Benzo[1,3]dioxol-5-yl-1-dibutylcarbamoylmethyl-2-[2-(tetrahydro-pyran-2-yl)-ethyl]-pyrrolidine-3-carboxylic acid], the IC50 was 47.8 µM.
CCCCN(CCCC)C(=O)CN1C[C@H](c2ccc3c(c2)OCO3)[C@@H](C(=O)O)[C@@H]1CCCC(C)C [(2S,3R,4S)-4-Benzo[1,3]dioxol-5-yl-1-dibutylcarbamoylmethyl-2-(4-methyl-pentyl)-pyrrolidine-3-carboxylic acid] gave an IC50 of 35.8 µM.
Molecule CCCCN(CCCC)C(=O)CN1C[C@H](c2ccc3c(c2)OCO3)[C@@H](C(=O)O)[C@@H]1CCc1nc(C)c(C)o1 [(2S,3R,4S)-4-Benzo[1,3]dioxol-5-yl-1-dibutylcarbamoylmethyl-2-[2-(4,5-dimethyl-oxazol-2-yl)-ethyl]-pyrrolidine-3-carboxylic acid] has an IC50 of 29.7 µM.
Work on CCCCN(CCCC)C(=O)CN1C[C@H](c2ccc3c(c2)OCO3)[C@@H](C(=O)O)[C@@H]1CC(C)(C)C=C(C)C [(2S,3R,4S)-4-Benzo[1,3]dioxol-5-yl-1-dibutylcarbamoylmethyl-2-(2,2,4-trimethyl-pent-3-enyl)-pyrrolidine-3-carboxylic acid] yielded an IC50 of 64 µM.
With CCCCN(CCCC)C(=O)CN1C[C@H](c2ccc3c(c2)OCO3)[C@@H](C(=O)O)[C@@H]1CCN1C(=O)CCC1=O [(2S,3R,4S)-4-Benzo[1,3]dioxol-5-yl-1-dibutylcarbamoylmethyl-2-[2-(2,5-dioxo-pyrrolidin-1-yl)-ethyl]-pyrrolidine-3-carboxylic acid] the IC50 was > 100 µM.
Molecule CCCCN(CCCC)C(=O)CN1C[C@H](c2ccc3c(c2)OCO3)[C@@H](C(=O)O)[C@@H]1CCc1cccn1C [(2S,3R,4S)-4-Benzo[1,3]dioxol-5-yl-1-dibutylcarbamoylmethyl-2-[2-(1-methyl-1H-pyrrol-2-yl)-ethyl]-pyrrolidine-3-carboxylic acid] has an IC50 of 43.6 µM.
For CCCCN(CCCC)C(=O)CN1C[C@H](c2ccc3c(c2)OCO3)[C@@H](C(=O)O)[C@@H]1CCC1OCCCO1 [(2S,3R,4S)-4-Benzo[1,3]dioxol-5-yl-1-dibutylcarbamoylmethyl-2-(2-[1,3]dioxan-2-yl-ethyl)-pyrrolidine-3-carboxylic acid], the IC50 was 62 µM.
In the case of C=CCCC[C@H]1[C@H](C(=O)O)[C@@H](c2ccc3c(c2)OCO3)CN1CC(=O)N(CCCC)CCCC [(2S,3R,4S)-4-Benzo[1,3]dioxol-5-yl-1-dibutylcarbamoylmethyl-2-pent-4-enyl-pyrrolidine-3-carboxylic acid], the IC50 is reported as 60 µM.
For CCCCN(CCCC)C(=O)CN1C[C@H](c2ccc3c(c2)OCO3)[C@@H](C(=O)O)[C@@H]1CCCCC(F)(F)F [(2S,3R,4S)-4-Benzo[1,3]dioxol-5-yl-1-dibutylcarbamoylmethyl-2-(5,5,5-trifluoro-pentyl)-pyrrolidine-3-carboxylic acid], the IC50 was 34 µM.
In the case of CCCCN(CCCC)C(=O)CN1C[C@H](c2ccc3c(c2)OCO3)[C@@H](C(=O)O)[C@@H]1CCc1ncco1 [(2S,3R,4S)-4-Benzo[1,3]dioxol-5-yl-1-dibutylcarbamoylmethyl-2-(2-oxazol-2-yl-ethyl)-pyrrolidine-3-carboxylic acid], the IC50 is reported as > 100 µM.
Work on CCCCC[C@H]1[C@H](C(=O)O)[C@@H](c2ccc3c(c2)OCO3)CN1CC(=O)N(CCCC)CCCC [(2S,3R,4S)-4-Benzo[1,3]dioxol-5-yl-1-dibutylcarbamoylmethyl-2-pentyl-pyrrolidine-3-carboxylic acid] yielded an IC50 of 47 µM.
C/C=C(\C)CC[C@H]1[C@H](C(=O)O)[C@@H](c2ccc3c(c2)OCO3)CN1CC(=O)N(CCCC)CCCC [(2S,3R,4S)-4-Benzo[1,3]dioxol-5-yl-1-dibutylcarbamoylmethyl-2-((E)-3-methyl-pent-3-enyl)-pyrrolidine-3-carboxylic acid] showed an IC50 of 48 µM.
CCCCN(CCCC)C(=O)CN1C[C@H](c2ccc3c(c2)OCO3)[C@@H](C(=O)O)[C@@H]1CCC1OC(C)C(C)O1 (stereo partly drawn) [(2S,3R,4S)-4-Benzo[1,3]dioxol-5-yl-1-dibutylcarbamoylmethyl-2-[2-(4,5-dimethyl-[1,3]dioxolan-2-yl)-ethyl]-pyrrolidine-3-carboxylic acid] showed an IC50 of 48 µM.
With CCCCN(CCCC)C(=O)CN1C[C@H](c2ccc3c(c2)OCO3)[C@@H](C(=O)O)[C@@H]1CCC1CCOCC1 [(2S,3R,4S)-4-Benzo[1,3]dioxol-5-yl-1-dibutylcarbamoylmethyl-2-[2-(tetrahydro-pyran-4-yl)-ethyl]-pyrrolidine-3-carboxylic acid] the IC50 was > 100 µM.
For CCCCN(CCCC)C(=O)CN1C[C@H](c2ccc3c(c2)OCO3)[C@@H](C(=O)O)[C@@H]1CCC1SCCS1 [(2S,3R,4S)-4-Benzo[1,3]dioxol-5-yl-1-dibutylcarbamoylmethyl-2-(2-[1,3]dithiolan-2-yl-ethyl)-pyrrolidine-3-carboxylic acid], the IC50 was 29.3 µM.
CCCCN(CCCC)C(=O)CN1C[C@H](c2ccc3c(c2)OCO3)[C@@H](C(=O)O)[C@@H]1CC/C=C(/C)CC [(2S,3R,4S)-4-Benzo[1,3]dioxol-5-yl-1-dibutylcarbamoylmethyl-2-((Z)-4-methyl-hex-3-enyl)-pyrrolidine-3-carboxylic acid] gave an IC50 of 7 µM.
For C=C(C)CCC[C@H]1[C@H](C(=O)O)[C@@H](c2ccc3c(c2)OCO3)CN1CC(=O)N(CCCC)CCCC [(2S,3R,4S)-4-Benzo[1,3]dioxol-5-yl-1-dibutylcarbamoylmethyl-2-(4-methyl-pent-4-enyl)-pyrrolidine-3-carboxylic acid], the IC50 was 36 µM.
Molecule CCCCN(CCCC)C(=O)CN1C[C@H](c2ccc3c(c2)OCO3)[C@@H](C(=O)O)[C@@H]1CCn1cccn1 [(2S,3R,4S)-4-Benzo[1,3]dioxol-5-yl-1-dibutylcarbamoylmethyl-2-(2-pyrazol-1-yl-ethyl)-pyrrolidine-3-carboxylic acid] has an IC50 of 28.6 µM.
Work on CCCCN(CCCC)C(=O)CN1C[C@H](c2ccc3c(c2)OCO3)[C@@H](C(=O)O)[C@@H]1CCC(CC)CC [(2S,3R,4S)-4-Benzo[1,3]dioxol-5-yl-1-dibutylcarbamoylmethyl-2-(3-ethyl-pentyl)-pyrrolidine-3-carboxylic acid] yielded an IC50 of 72 µM.
CCCCN(CCCC)C(=O)CN1C[C@H](c2ccc3c(c2)OCO3)[C@@H](C(=O)O)[C@@H]1CCC=C1CC1 [(2S,3R,4S)-4-Benzo[1,3]dioxol-5-yl-2-(3-cyclopropylidene-propyl)-1-dibutylcarbamoylmethyl-pyrrolidine-3-carboxylic acid] gave an IC50 of 10 µM.
In the case of CCCCN(CCCC)C(=O)CN1C[C@H](c2ccc3c(c2)OCO3)[C@@H](C(=O)O)[C@@H]1CCc1ccoc1 [(2S,3R,4S)-4-Benzo[1,3]dioxol-5-yl-1-dibutylcarbamoylmethyl-2-(2-furan-3-yl-ethyl)-pyrrolidine-3-carboxylic acid], the IC50 is reported as 26 µM.
Molecule CCCCN(CCCC)C(=O)CN1C[C@H](c2ccc3c(c2)OCO3)[C@@H](C(=O)O)[C@@H]1CC(C)(C)CCC [(2S,3R,4S)-4-Benzo[1,3]dioxol-5-yl-1-dibutylcarbamoylmethyl-2-(2,2-dimethyl-pentyl)-pyrrolidine-3-carboxylic acid] has an IC50 of 62 µM.
For CCCCN(CCCC)C(=O)CN1C[C@H](c2ccc3c(c2)OCO3)[C@@H](C(=O)O)[C@@H]1CCC1OCCO1 [(2S,3R,4S)-4-Benzo[1,3]dioxol-5-yl-1-dibutylcarbamoylmethyl-2-(2-[1,3]dioxolan-2-yl-ethyl)-pyrrolidine-3-carboxylic acid], the IC50 was > 100 µM.
